Test results: patent US20020028836A1, “Potassium channel openers” (priority 2000, published 2002)
Read-outs that look alike come from different tables or passages of the source.

Legend:
[1] = system: tissue strips obtained from Landrace pig bladders; assay: Functional potassium channel opening activity in isolated bladder strips (field-stimulated twitch); conditions: for Index: ED50 for P1075 divided by ED50 for the test agonist in a given tissue, averaged; for EC50: amount of agent necessary to cause 50% of the agent's maximal response, read-out: ED50 (the source's name); for Efficacy (% P1075) / Emax: maximal efficacy relative to P1075, field stimulation 0.05 Hz, 0.5 ms, 20 volts
Summary of the method: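 Mucosa-free female Landrace pig bladder strips in Krebs Ringer bicarbonate (pH 7.4, 37° C., 0.004 mM propranolol), 1.0 g preload, field-stimulated at 0.05 Hz, 0.5 ms, 20 V for twitch. Cumulative concentration-response curves; maximal efficacy as % of P1075, ED50 fitted, potency index = P1075 ED50/test ED50 per tissue, averaged.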

[2] = system: primary cultured guinea-pig urinary bladder (GPB) cells; assay: Membrane hyperpolarization (MHP) assay, DiBAC(4)3 / FLIPR; type: cell-based; conditions: for EC50: concentration that elicits 50% of the maximal response for the test sample
Summary of the method: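 Primary smooth-muscle cells from male guinea-pig bladder, grown to confluence, loaded 30 min at 37° C with 5 μM DiBAC(4)3 in HEPES buffer pH 7.4. Fluorescence drop on FLIPR followed 25 min after compound; steady-state hyperpolarization normalized to 10 μM P1075 (100%), EC50 from four-parameter fit of five concentrations.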

[3] = system: bladder contractions in male CD rats; assay: In vivo bladder efficacy protocol (isovolumetric contractions model); parameters: species or system rat; conditions: iv, cumulative doses; dose reducing area under the curve of bladder contractions by 30% relative to control; urethane-anesthetized rats
Excerpt: The utility of compounds of the present invention for the treatment of urinary incontinence, bladder overactivity, and bladder instability is illustrated by the ability of compounds of the present invention to inhibit bladder contractions in vivo. The following method is illustrative of the in vivo bladder efficacy of compounds of the present invention.
Male CD rats (400-450 g) were anesthetized with urethane (0.6 g/kg ip+0.6 g/kg sc). The left femoral vein was cannulated with polyethylene (PE-50) tubing for the administration of test compound. A third polyethylene catheter (PE-60) was inserted 3-4 mm into the apex of the bladder dome and secured using a 5-0 silk purse string suture. The bladder was emptied via this catheter and additionally by applying slight manual pressure on the lower abdomen. The urinary catheter was connected using a Y-tube connector to both a pressure transducer and a syringe pump. The urethra was then ligated using 4-0 silk suture and the bladder was slowly filled using a constant infusion of room temperature saline at the rate of 0.1 mL/min until spontaneous rhythmic contractions were evident (1.0-1.3 mL). After the contractions stabilized to a consistent pattern, bladder pressure was monitored for 20 minutes before and after a dose of the vehicle (equal parts of β-cyclodextrin stock solution (100 g β-cyclodextrin dissolved in 200 mL) and sterile water) alone. Then three doses of a test compound were administered cumulatively intravenous (iv) at 20 minute intervals. Each dosing solution (1 mL/kg) was warmed to body temperature before dosing and was infused over 3 minutes to minimize dosing artifacts on the bladder pressure trace. Data were averaged over the last 10 minutes of each period and presented as percent change from control. Area under the curve of the bladder contractions was determined from the respective waveforms using a Modular Instruments, Inc. computerized data acquisition system and averaged over the last ten minutes of each twenty minute period. The doses required to reduce the area under the curve of the bladder contractions by 30% (AUC ED30%) relative to control were estimated using a customized Excel spreadsheet.

[4] = Cavia porcellus, maximal steady-state hyperpolarization, normalized to response with 10 μM P1075 (100%)

| SMILES | Index [1] | EC50 [1] [µM] | Efficacy (% P1075) [1] [% P1075] | EC50 [2] [µM] | Maximal Response (% P1075) ([2]; maximal steady-state hyperpolarization, normalized to response with 10 μM P1075 (100%)) | AUC EC30 [3] [µmol/kg] | EC50 ([1]; Sus scrofa) [µM] | Emax ([1]; Sus scrofa) [%] | EC50 ([2]; Cavia porcellus) [µM] | Emax [2, 4] [%] |
| --- | --- | --- | --- | --- | --- | --- | --- | --- | --- | --- |
| C=CCC(C)(C)C(NC(=O)c1ccc(Cl)cc1)NC(=NC#N)Nc1cccnc1 (single isomer, unassigned; (+)) [Example 91, (+) 4-chloro-N-(1-{[(cyanoimino)(3-pyridinylamino)methyl]amino}-2,2-dimethyl-4-pentenyl)benzamide] | 0.360 | 0.83 | 46 | 2.9 | 68 | >10 |  |  |  |  |
| CC(C)(C)CC(NC(=O)c1ccc(Cl)cc1)NC(=N[N+](=O)[O-])Nc1cccnc1 (single isomer, unassigned; (-)) [Example 126, (−) 4-chloro-N-(1-{[(nitroimino)(3-pyridinylamino)methyl]amino}-3,3-dimethylbutyl)benzamide] | 0.096 | 3.8 | 94 |  |  | 13.5 |  |  |  |  |
| Cc1ccc(C(=O)NC(NC(=NC#N)Nc2ccccc2)C(Cl)(Cl)Cl)cc1 (stereo not drawn) [Example 46, N-(1-{[anilino(cyanoimino)methyl]amino}-2,2,2-trichloroethyl)-4-methylbenzamide] | 0.015 |  |  |  |  | 0.70 | 5 | 84 | 0.04 | 105 |
| Cc1ccc(C(=O)NC(NC(=NC#N)Nc2cccnc2)C(C)(C)C)cc1 (stereo not drawn) [Example 51, N-(1-{[(cyanoimino)(3-pyridinylamino)methyl]amino}-2,2-dimethylpropyl)-4-methylbenzamide] | 0.006 |  | 100 | 0.57 |  | 0.28 | 17 |  |  | 88 |
| CC(C)(C)C(NC(=O)c1ccc(Cl)cc1)NC(=NC#N)Nc1cccnc1 (stereo not drawn) [Example 52, 4-chloro-N-(1-{[(cyanoimino)(3-pyridinylamino)methyl]amino}-2,2-dimethylpropyl)benzamide] | 0.012 |  |  |  |  | 0.78 | 19 | 72 | 0.27 | 72 |
| CC(Cl)(Cl)C(NC(=O)c1cccc(Cl)c1)NC(=NC#N)Nc1ccc(Cl)nc1 (stereo not drawn) [Example 153, 3-chloro-N-(2,2-dichloro-1-{[[(6-chloro-3-pyridinyl)amino](cyanoimino)methyl]amino}propyl)benzamide] | 0.014 |  |  |  |  | 1 | 4.9 | 93 |  |  |
| CC(Cl)(Cl)C(NC(=O)c1ccc(Cl)cc1)NC(=NC#N)Nc1ccc(Cl)nc1 (stereo not drawn) [Example 160, 4-chloro-N-(2,2-dichloro-1-{[[(6-chloro-3-pyridinyl)amino](cyanoimino)methyl]amino}propyl)benzamide] | 0.221 | 0.69 |  |  |  | 1.7 |  | 98 |  |  |
